Experimental data published in PMC2989405 (Cell, 2009).

Experiments:
rat MrgprA = molecular target: T1, rat MrgprA (Rattus norvegicus, UniProt Q7TN49); test: response of electroporated Mrgpr-deficient mouse DRG neurons; format: cell-based; conditions: agonist
T1 sequence (Q7TN49 1-304): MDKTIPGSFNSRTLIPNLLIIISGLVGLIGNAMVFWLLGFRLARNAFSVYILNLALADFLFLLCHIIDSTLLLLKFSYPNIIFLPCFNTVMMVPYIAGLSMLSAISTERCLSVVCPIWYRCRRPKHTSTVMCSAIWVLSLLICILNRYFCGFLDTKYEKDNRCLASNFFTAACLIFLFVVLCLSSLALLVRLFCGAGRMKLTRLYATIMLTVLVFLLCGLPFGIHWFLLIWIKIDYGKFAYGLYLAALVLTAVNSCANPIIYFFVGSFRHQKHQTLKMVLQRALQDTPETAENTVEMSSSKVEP

MrgprA3 = molecular target: T2, MrgprA3 (Mus musculus, UniProt Q91WW3); test: calcium imaging; format: cell-based; conditions: agonist; dose-response in figure
T2 sequence (Q91WW3 1-302): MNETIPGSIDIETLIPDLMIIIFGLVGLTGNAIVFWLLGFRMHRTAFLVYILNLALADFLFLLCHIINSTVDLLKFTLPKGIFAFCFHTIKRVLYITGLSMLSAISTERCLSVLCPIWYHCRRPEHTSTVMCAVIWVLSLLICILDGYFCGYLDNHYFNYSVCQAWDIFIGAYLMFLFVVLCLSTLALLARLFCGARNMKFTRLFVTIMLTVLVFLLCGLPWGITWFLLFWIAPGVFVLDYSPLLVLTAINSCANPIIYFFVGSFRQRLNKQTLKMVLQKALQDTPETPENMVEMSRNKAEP

SMILES: CCN(CC)CCCC(C)Nc1ccnc2cc(Cl)ccc12 (centres unmarked) [chloroquine]
- response of electroporated Mrgpr-deficient mouse DRG neurons (rat MrgprA): Expression of rat MrgprA in Mrgpr-clusterΔ^−/− DRG neurons conferred CQ sensitivity upon them

SMILES: C=C[C@H]1CN2CC[C@H]1C[C@H]2[C@H](O)c1ccnc2ccc(OC)cc12 [quinine]
- calcium imaging (fura-2) in transfected HEK293 cells (MrgprA3): Unlike CQ, quinine weakly activates MrgprA3
